Measurements from patent US20240390383A1, “DIOXAZINES AND THEIR USE IN TREATMENT OF GBA-RELATED DISEASES” (ZEVRA DENMARK A/S, priority 2021, published 2024).
Values joined by “and” are separate entries in the source; they are usually repeats but may differ in a detail not shown here. Identical values can stand only once.

Molecular target: T1, GCase (GBA) in human fibroblast cell line GM10915 harboring the L444P GBA mutation (Homo sapiens, UniProt P04062, L483P)
T1 construct: Human fibroblast cell line GM10915 harboring the L444P GBA mutation; host or cells: GM10915 human fibroblasts
T1 sequence (P04062 40-536 L483P): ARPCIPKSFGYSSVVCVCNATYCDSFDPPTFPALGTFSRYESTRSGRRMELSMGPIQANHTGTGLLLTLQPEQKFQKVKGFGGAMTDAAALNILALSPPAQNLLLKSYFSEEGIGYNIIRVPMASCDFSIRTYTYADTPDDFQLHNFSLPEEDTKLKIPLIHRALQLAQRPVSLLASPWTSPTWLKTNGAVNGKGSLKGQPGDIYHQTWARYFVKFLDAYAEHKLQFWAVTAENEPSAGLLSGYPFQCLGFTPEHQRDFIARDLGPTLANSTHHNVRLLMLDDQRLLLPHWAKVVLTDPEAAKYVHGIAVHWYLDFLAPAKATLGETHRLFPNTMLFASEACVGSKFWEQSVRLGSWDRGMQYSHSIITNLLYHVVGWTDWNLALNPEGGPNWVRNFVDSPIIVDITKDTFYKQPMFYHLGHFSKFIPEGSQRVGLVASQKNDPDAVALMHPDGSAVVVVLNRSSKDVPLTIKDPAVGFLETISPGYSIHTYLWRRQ
Test: GCase activity assay (4-MUG substrate, normalised to crystal violet staining) in L444P GBA fibroblasts
Format: cell-based
Conditions: 5 days exposure; for GBA EC1.5: concentration giving 150% GCase activity (1.5-fold induction), 8-point dose range
Method: Human fibroblast cell line GM10915 harboring the L444P GBA mutation was obtained from Coriell Biorepositories.
All chemicals (Glacial acetic acid, Glycine, 4-Methylumbelliferyl b-D-glucopyranoside (4-MUG), Sodium acetate trihydrate, Sodium hydroxide, Crystal violet, SDS, Ammonium hydroxide) were obtained from Sigma-Aldrich (Denmark) Compounds tested for GCase activity were dissolved in H2O or DMSO.
The GM10915 cell line was cultured under standard cell culture conditions (37° C. and 5% CO2) in complete DMEM medium supplemented with nonessential amino acids (NEAA), 1% Pen-Strep and 12% FCS. Cells were seeded at a density of 10^4 cells/well in 100 μL complete medium in one black 96-well plate for glucosylceramidase (GCase) activity measurement and in one clear 96-well plate for crystal violet staining to correct for cell density. Crystal violet staining is performed to obtain quantitative information about the relative density of cells adhering to multi-wells plates.
The assay was adapted from Sawkar et al (2002) and briefly described in the following. The day after seeding of cells, the medium was replaced with fresh medium containing the compounds to be tested. Compounds were tested in duplicate and in an 8-point diluted dose range to obtain a dose response. Cells were exposed with compounds for five days. Fresh compound was added every 2-3 days. PBS was included to define the basal level of GCase activity.
Cells were washed three times with 200 μL PBS per well and 50 μL of 2.5 mM 4-MUG buffer (4-MUG dissolved in 0.2 M acetate buffer pH 4.0) was added and the cells were incubated at 37° C., 5% CO2 for 23 hours. The reaction was stopped by adding 150 μL 0.2 M glycine buffer (pH 10.8). Fluorescence was measured with a Varioskan® Flash reader (Thermo Scientific) at an excitation/emission setting of 365/445 nm.
Cells were treated with compounds in a parallel setup identical to the setup to test for GCase activity. At the end of compound treatment, cells were washed once with 200 μL PBS per well and 50 μL 0.1% w/v crystal violet (in H2O) was added. Following 10 min. of incubation, the crystal violet solution was removed, and the cells were washed three times with 200 μL PBS and 100 μL 1% SDS was added to solubilize the stain. The plate was agitated on an orbital shaker for 10-30 min. Absorbance (A) is measured at […] using a Varioskan® Flash reader (Thermo Scientific).
The fluorescence signal (F) derived from the GCase measurement is normalized to the absorbance signal (A) derived from the crystal violet staining. The percent GCase activity resulting from compound treatment is calculated relative to the basal activity obtained from untreated cells.
Maximal effect of compounds (Emax) is determined from the dose response effects as the maximum “Percent GCase activity” achieved in the dose range tested.

[1] = maximum percent GCase activity relative to untreated cells in the dose range tested

GBA EC1.5 | Emax [1] | GBA Emax [1] | Structure (SMILES)
21 µM | 225% | – | COCCC1(C2=NOCC(CN3CCCCC3)O2)CCN(C)C1 (racemic) [compound 701, rac-3-(3-(2-methoxyethyl)-1-methylpyrrolidin-3-yl)-5-(piperidin-1-ylmethyl)-5,6-dihydro-1,4,2-dioxazine]
5 µM | 180% | – | CC1(C)CC(C2=NOCC(CN3CCCCC3)O2)CCN1 (racemic) [compound 705, rac-3-(2,2-dimethyl-4-piperidyl)-5-(1-piperidylmethyl)-5,6-dihydro-1,4,2-dioxazine]
6 µM | 180% | – | CC(C)C1ON=C(C2CCNCC2)OC1CN1CCCCC1 (racemic) [compound 706, rac-6-isopropyl-5-(piperidin-1-ylmethyl)-3-(piperidin-4-yl)-5,6-dihydro-1,4,2-dioxazine]
4 µM and 2 µM | 249% | 230% | CC(C)C1ON=C(C2CCN(C)C2)OC1CN1CCCCC1 (racemic) [compound 707, rac-6-isopropyl-3-(1-methylpyrrolidin-3-yl)-5-(piperidin-1-ylmethyl)-5,6-dihydro-1,4,2-dioxazine]
22 µM | 178% | – | CC(C)N1CCCC(C2=NOCC(CN3CCCCC3)O2)C1 (racemic) [compound 709, rac-3-(1-isopropylpiperidin-3-yl)-5-(piperidin-1-ylmethyl)-5,6-dihydro-1,4,2-dioxazine]
28 µM | 234% | – | CN(C)C(=O)CN1CCCC(C2=NOCC(CN3CCCCC3)O2)C1 (racemic) [compound 710, rac-N,N-dimethyl-2-(3-(5-(piperidin-1-ylmethyl)-5,6-dihydro-1,4,2-dioxazin-3-yl)piperidin-1-yl)acetamide]
38 µM | 198% | – | NC(=O)CN1CCCC(C2=NOCC(CN3CCCCC3)O2)C1 (racemic) [compound 711, rac-2-(3-(5-(piperidin-1-ylmethyl)-5,6-dihydro-1,4,2-dioxazin-3-yl)piperidin-1-yl)acetamide]
28 µM | 212% | – | CC(C)C1ON=C(C2CCNC2)OC1CN(C)C (racemic) [compound 713, rac-1-(6-isopropyl-3-(pyrrolidin-3-yl)-5,6-dihydro-1,4,2-dioxazin-5-yl)-N,N-dimethylmethanamine]
16 µM | 213% | – | COC1CN(C(C)C)CCC1C1=NOCC(CN2CCCCC2)O1 (racemic) [compound 714, rac-3-(1-isopropyl-3-methoxypiperidin-4-yl)-5-(piperidin-1-ylmethyl)-5,6-dihydro-1,4,2-dioxazine]
10 µM | 242% | – | CC(C)N1CCC(C2=NOCC(CN3CCCCC3)O2)CC1 (racemic) [compound 719, rac-3-(1-isopropylpiperidin-4-yl)-5-(piperidin-1-ylmethyl)-5,6-dihydro-1,4,2-dioxazine]
11 µM | 346% | – | COC1CN(C)CCC1C1=NOCC(CN2CCCCC2)O1 (racemic) [compound 720, rac-3-(3-methoxy-1-methylpiperidin-4-yl)-5-(piperidin-1-ylmethyl)-5,6-dihydro-1,4,2-dioxazine]
33 µM | 175% | – | CNC(=O)CN1CCCC(C2=NOCC(CN3CCCCC3)O2)C1 (racemic) [compound 721, rac-N-methyl-2-(3-(5-(piperidin-1-ylmethyl)-5,6-dihydro-1,4,2-dioxazin-3-yl)piperidin-1-yl)acetamide]
26 µM | 153% | – | OCC1(C2=NOCC(CN3CCCCC3)O2)CCNCC1 (racemic) [compound 722, rac-(4-(5-(piperidin-1-ylmethyl)-5,6-dihydro-1,4,2-dioxazin-3-yl)piperidin-4-yl)methanol]
36 µM | 168% | – | NCC(=O)N1CCCC(C2=NOCC(CN3CCCCC3)O2)C1 (racemic) [compound 725, rac-2-amino-1-(3-(5-(piperidin-1-ylmethyl)-5,6-dihydro-1,4,2-dioxazin-3-yl)piperidin-1-yl)ethan-1-one]
8 µM | 269% | – | COCCC1(C2=NOCC(CN3CCCCC3)O2)CCNCC1 (racemic) [compound 726, rac-3-(4-(2-methoxyethyl)piperidin-4-yl)-5-(piperidin-1-ylmethyl)-5,6-dihydro-1,4,2-dioxazine]
16 µM | 283% | – | CC(N)C(=O)N1CCC(C2=NOCC(CN3CCCCC3)O2)CC1 (racemic) [compound 748, rac-2-amino-1-(4-(5-(piperidin-1-ylmethyl)-5,6-dihydro-1,4,2-dioxazin-3-yl)piperidin-1-yl)propan-1-one]
39 µM | 121% | – | CNC1CNCC(C2=NOCC(CN3CCCCC3)O2)C1 (racemic) [compound 756, rac-N-methyl-5-(5-(piperidin-1-ylmethyl)-5,6-dihydro-1,4,2-dioxazin-3-yl)piperidin-3-amine]
38 µM | 136% | – | CN(C)[C@H]1CNC[C@H]1C1=NOCC(CN2CCCCC2)O1 (mixture of isomers) [compound 766, rac-rel-cis-(3R,4R)—N,N-dimethyl-4-(5-(piperidin-1-ylmethyl)-5,6-dihydro-1,4,2-dioxazin-3-yl)pyrrolidin-3-amine]
6 µM | 238% | – | CN(C)CCCC1=NOCC(CN2CCCCC2)O1 (racemic) [compound 768, rac-N,N-dimethyl-3-(5-(piperidin-1-ylmethyl)-5,6-dihydro-1,4,2-dioxazin-3-yl)propan-1-amine]
9 µM | 265% | – | CN1CCC(C2=NOCC(CN3CCCCC3)O2)CC1 (racemic) [compound 770, rac-3-(1-methylpiperidin-4-yl)-5-(piperidin-1-ylmethyl)-5,6-dihydro-1,4,2-dioxazine]
11 µM | 259% | – | CN(C)CCC1=NOCC(CN2CCCCC2)O1 (racemic) [compound 779, rac-N,N-dimethyl-2-(5-(piperidin-1-ylmethyl)-5,6-dihydro-1,4,2-dioxazin-3-yl)ethan-1-amine]
42 µM | 193% | – | NCC(=O)N1CCC(C2=NOCC(CN3CCCCC3)O2)CC1 (racemic) [compound 787, rac-2-amino-1-(4-(5-(piperidin-1-ylmethyl)-5,6-dihydro-1,4,2-dioxazin-3-yl)piperidin-1-yl)ethan-1-one]
46 µM | 149% | – | c1cncc(CNCCC2=NOCC(CN3CCCCC3)O2)c1 (racemic) [compound 797, rac-2-(5-(piperidin-1-ylmethyl)-5,6-dihydro-1,4,2-dioxazin-3-yl)-N-(pyridin-3-ylmethyl)ethan-1-amine]
40 µM | 183% | – | COc1cncc(CNCCC2=NOCC(CN3CCCCC3)O2)c1 (racemic) [compound 806, rac-N-((5-methoxypyridin-3-yl)methyl)-2-(5-(piperidin-1-ylmethyl)-5,6-dihydro-1,4,2-dioxazin-3-yl)ethan-1-amine]
4 µM | 181% | – | C1CCN(CCC2=NOCC(CN3CCCCC3)O2)CC1 (racemic) [compound 816, rac-3-(2-(piperidin-1-yl)ethyl)-5-(piperidin-1-ylmethyl)-5,6-dihydro-1,4,2-dioxazine]
